Experimental data: patent US11266701B2, “Synergistic combinations of caffeine, ginkgo biloba and beta-phenylethylamine” (TRINUTRA LTD., priority 2016, dated 2022)

Test system: murine macrophage cell line, RAW 264.7
Assay: Nitric oxide (NO) release from LPS-induced RAW 264.7 cells (Griess Reagent System)
Assay type: cell-based
Protocol: 10^5 cells from a murine macrophage cell line, RAW 264.7, were seeded in 96-well plates in a medium containing 1% FBS, 1% Glutamine and 1% Pen/strep in DMEM. […] In addition, positive control cells were treated with 20 μM dexamethasone. Nitric oxide (NO) release was tested after incubation at 37° C., 5% CO2 using the Griess Reagent System. The method is based on the chemical diazotization reaction that was originally described by Griess in 1879, which uses sulfanilamide and N-1-napthylethylenediamine dihydrochloride (NED) under acidic (phosphoric acid) conditions. This system detects NO2^− in a variety of biological and experimental liquid matrices such as tissue culture medium that was tested in this study.

Structure (SMILES) | effect on NO release (FIG. 1: 40 μg/ml caffeine tested separately, LPS 5 ng/ml, 22 hours) | effect on NO release (FIG. 2: 40 μg/ml caffeine tested separately, LPS 5 ng/ml, 22 hours) | effect on NO release (FIG. 3: 390 μg/ml caffeine, 40 μg/ml Ginkgo biloba, tested separately) | NO release as % of LPS-only negative control (FIG. 1: 240 μg/ml Ginkgo biloba, 500 μg/ml PEA, tested separately, LPS 5 ng/ml, 22 hours) | NO release as % of LPS-only negative control (FIG. 2: 240 μg/ml Ginkgo biloba, 120 μg/ml PEA, tested separately, LPS 5 ng/ml, 22 hours) | reduction in NO release (FIG. 3: 630 μg/ml PEA alone, C+G+P = 390 μg/ml caffeine + 40 μg/ml Ginkgo biloba + 630 μg/ml PEA) | effect on NO release (FIG. 4: 630 μg/ml PEA alone, binary combination 390 μg/ml caffeine + 630 μg/ml PEA) | NO release inhibition (FIG. 5: 40 μg/ml Ginkgo biloba, 630 μg/ml PEA, separately and as binary combination) | effect on NO release compared with dexamethasone positive control (FIGS. 3-6: 390 μg/ml caffeine, 40 μg/ml Ginkgo biloba, 630 μg/ml PEA)
Cn1c(=O)c2c(ncn2C)n(C)c1=O [caffeine] | essentially without effect | essentially without effect | slight reduction | – | – | – | – | – | –
NCCc1ccccc1 [PEA, β-phenylethylamine] | – | – | – | ~85% | 95% | 20% | significant reduction | a certain degree of NO release inhibition | considerably less than that seen in the positive control
